Bridge positions count the residues as written; N and C are the ends. Ends that are not written are not given here. I, II: the chains in the order shown.
What was measured:
[1] = tested on: R+ cells; test: BrdU proliferation assay of transfected R+ cells; assay type: cell-based, mouse; settings: 10 nM IGF-1 for 24 h; BrdU for last 6 h
Experimental: R^+ cells (described in 2.4) were seeded into 96-well plates so that they reached ∼50 % confluency after overnight incubation. […] Three hours post transfection, Opti-MEM medium was exchanged for regular culture medium. 24 h post transfection, cells were washed once with PBS and starved in serum free culture medium. After 24 h of starvation, cells were stimulated with IGF-1 (diluted in serum free medium) to reach final concentration of 10 nM IGF-1 per well for another 24 h period (serum free medium only was added to the non-stimulated wells). To determine the rate of proliferation in each well, BrdU Cell Proliferation Assay (Sigma–Aldrich, #QIA58) was used. Manufacturer's instructions were followed, with the BrdU probe being added for the last 6 h of the 24 h stimulation with IGF-1. Absorbance at dual wavelengths of 450–540 nm was measured using a spectrophotometric plate reader. The experiment was repeated at least three times and for each biological replicate, results were expressed as relative change compared to non-stimulated cells transfected with empty vector. Statistical analysis was performed using paired two-tailed Student's t-test.

[2] = tested on: IGF1R gene expression; test: IGF1R gene expression (RT-qPCR) in R+ cells after repeated stimulation with synthetic ligand; assay type: cell-based, human; settings: 100 nM ligand every 3 h over 24 h, normalised to β-actin, compared to basal, n = 3
Experimental: To assess the potential impact of external VILP exposure on IGF1R gene expression, we employed R^+ cells, seeding 30 × 10^4 cells per well. Following a 24-hour incubation period, cells were washed twice with PBS and were subsequently serum-starved for 4 h before sequential stimulation with various ligands (scMFRV-VILP, dcMFRV-VILP, and IGF-1). The cells were stimulated with 100 nM of each ligand every 3 h over a 24-hour period. Post the final stimulation, the cells were snap-frozen and stored at −80 °C.
Subsequently, the lysates were transferred to microtubes and chloroform in ratio 5:1 (Tri Reagent: chloroform) was added. The mixture was vortexed for 15s, incubated at RT for 5 min and centrifuged for 15 min at 12000g, 4 °C. The upper aqueus phase was transferred to new tubes, 100 % ethanol was added to give a 1:1 volumetric ratio and subsequently the Direct-zol RNA Miniprep Kit (Zymo Research) was used according to the manufacturer's instructions. cDNA synthesis was performed using Maxima™ H Minus cDNA Syntheis Master Mix (ThermoFisher Scientific) according to manufacturer's instructions. The qPCR was performed using Power SYBR® Green PCR Master Mix (Applied Biosystems) according to manufacturer's instructions on QuantStudio 3 (Applied Biosystems). Statistical analysis was performed using ordinary one-way ANOVA followed by Tukey's multiple comparison test.

[3] = tested on: C57BL/6 J mice; test: Insulin tolerance test; assay type: in vivo, mouse
Experimental: All animal studies presented in this study complied with the regulations and ethics guidelines of the NIH and were approved by the Boston College Institutional Animal Care and Use Committee. Insulin tolerance testing was performed on 12 to 17-week-old male C57BL/6 J mice (Jackson Laboratory). Mice were grouped according to their weight before experiment. After 6-hour starvation, mice were injected i.p. with insulin (Humulin, 6 nmol/kg, corresponds to 1.0 U/kg, 1x) (Eli Lilly), scMFRV-VILP (6 nmol/kg, 1x and 60 nmol/kg, 10x), dcMFRV-VILP (60 nmol/kg, 10x), dcLCDV-Sa-VILP (0.3 μmol/kg, 50x), and saline as a control (n = 4–11 per condition). Tail-vein blood glucose was measured until 3 h post-injection using an Infinity glucometer (US Diagnostic Inc.). Statistical analysis was done using Mixed effects analysis - Dunnett's multiple comparisons test.

[4] = target: T1, human IGF1R (Homo sapiens, UniProt P08069); test: cell-based; set-up: expressed in transfected cells; host or cells: HEK293 cells overexpressing human IGF-1R
Experimental: (§1) Insulin or IGF-1 receptor phosphorylation was measured as described in [13]. Briefly, HEK293 cells overexpressing human IR-A, IR-B, or IGF-1R were plated in 96-well tissue culture plates and cultured for 16–20 h at 37 °C, 5 % CO2, and 90 % humidity. […] For antagonism studies, test peptides were pre-mixed with 10 nM IGF-1. After 15 min incubation at 37 °C in humidified atmosphere with 5 % CO2, the cells were fixed with 5 % paraformaldehyde for 20 min at room temperature, washed twice with PBS (pH 7.4) and blocked with 2 % BSA in PBS for 1 h. The plate was washed three times, filled with anti-phospho-IR/IGF1R (Tyr1158) antibody (Millipore) and incubated for 3 h at room temperature, after which the plate was washed four times and filled with goat anti-rabbit secondary antibody (#A16110, ThermoFisher). Following 30 min incubation and another four washes, 0.1 mL of TMB One Solution substrate (#00-2023; Invitrogen) was added to each well. Color development was stopped 10 min later by adding 0.05 mL 1 M HCl.
Target sequence in this assay (P08069 741-1367): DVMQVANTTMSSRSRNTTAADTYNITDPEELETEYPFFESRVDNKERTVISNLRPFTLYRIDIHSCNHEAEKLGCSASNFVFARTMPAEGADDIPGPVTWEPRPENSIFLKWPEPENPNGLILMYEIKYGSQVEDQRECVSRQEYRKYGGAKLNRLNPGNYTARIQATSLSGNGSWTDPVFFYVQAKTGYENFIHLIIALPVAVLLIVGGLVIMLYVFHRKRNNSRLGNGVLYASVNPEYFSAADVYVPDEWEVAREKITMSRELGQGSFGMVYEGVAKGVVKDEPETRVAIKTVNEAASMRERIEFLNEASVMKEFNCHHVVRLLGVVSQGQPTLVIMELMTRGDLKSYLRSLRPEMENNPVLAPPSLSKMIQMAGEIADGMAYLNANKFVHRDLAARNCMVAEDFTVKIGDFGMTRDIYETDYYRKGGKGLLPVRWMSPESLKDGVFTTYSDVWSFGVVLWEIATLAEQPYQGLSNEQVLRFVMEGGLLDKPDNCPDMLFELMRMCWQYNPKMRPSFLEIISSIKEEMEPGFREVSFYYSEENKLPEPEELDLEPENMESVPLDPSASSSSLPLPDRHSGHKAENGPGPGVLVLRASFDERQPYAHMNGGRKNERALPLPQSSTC
Target sequence in this assay (P08069 31-736): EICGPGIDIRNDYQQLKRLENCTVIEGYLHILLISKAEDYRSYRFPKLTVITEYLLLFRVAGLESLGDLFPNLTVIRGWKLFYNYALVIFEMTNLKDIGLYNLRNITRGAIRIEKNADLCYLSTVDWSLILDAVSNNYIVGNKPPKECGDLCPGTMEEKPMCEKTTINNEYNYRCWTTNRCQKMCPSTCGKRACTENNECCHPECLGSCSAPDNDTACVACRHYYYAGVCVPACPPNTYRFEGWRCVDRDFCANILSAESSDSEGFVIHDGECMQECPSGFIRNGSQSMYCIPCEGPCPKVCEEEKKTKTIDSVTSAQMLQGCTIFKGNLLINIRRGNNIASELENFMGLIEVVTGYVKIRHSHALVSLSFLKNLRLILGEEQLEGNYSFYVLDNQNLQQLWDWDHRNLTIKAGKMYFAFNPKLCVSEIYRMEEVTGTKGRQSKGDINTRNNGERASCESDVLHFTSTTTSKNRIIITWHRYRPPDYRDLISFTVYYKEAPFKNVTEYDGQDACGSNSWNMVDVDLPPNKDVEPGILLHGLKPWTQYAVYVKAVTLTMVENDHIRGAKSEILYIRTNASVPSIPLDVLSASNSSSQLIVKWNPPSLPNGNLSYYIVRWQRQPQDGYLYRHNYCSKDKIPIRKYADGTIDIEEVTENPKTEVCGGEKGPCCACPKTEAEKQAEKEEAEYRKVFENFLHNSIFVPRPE

[5] = target: T2, human IR-B (Homo sapiens, UniProt P06213); test: Whole-cell binding competition assay with 125I-insulin on R-/IR-B fibroblasts; settings: competition with 125I-insulin, R-/IR-B cells; mean ± S.D. (n), n ≥ 3; measurement series #; SD
T2 construct: expressed in transfected cells; host or cells: murine embryonic fibroblasts from IGF1R knockout mice, stably transfected with IR-B (R-/IR-B cells)
Experimental: (§2) For receptor binding studies, human IM-9 lymphoblasts, that express IR-A exclusively, and R^−/IR-B and R^+ murine embryonic fibroblasts were used for a whole-cell receptor-binding assay. Receptor binding assays on IR-A were perfomed accoding to Morcavallo et al. [24]and binding assays on IR-B and IGF1R were performed according to Kosinova et al.. […] Human ^125I-insulin was prepared as described by Asai et al. and human ^125I-IGF-1 was prepared as described in Kertisova et al..

[6] = target: T1, human IGF1R; test: Whole-cell binding competition assay with 125I-IGF-1 on R+ fibroblasts; set-up: expressed in transfected cells; host or cells: murine embryonic fibroblasts from IGF1R knockout mice, stably transfected with IGF1R (R+ cells); settings: competition with 125I-IGF-1, R+ cells; mean ± S.D. (n), n ≥ 3; measurement series #; SD
Experimental: as §2
Target sequence in this assay (P08069 31-736): as above
Target sequence in this assay (P08069 741-1367): as the sequence (P08069 741-1367) above

[7] = target: T3, human IR-A (Homo sapiens, UniProt P06213); test: cell-based; set-up: human IM-9 lymphoblasts, that express IR-A exclusively
Experimental: as §1

[8] = target: T3, human IR-A; test: Whole-cell binding competition assay with 125I-insulin on IM-9 lymphoblasts; set-up: human IM-9 lymphoblasts, that express IR-A exclusively; host or cells: human IM-9 lymphoblasts (whole cells)
Experimental: as §2

[9] = tested on: IR-B; test: Insulin/IGF signaling via IR-B in R-/IR-B cells (western blot); assay type: cell-based, human; settings: 0.1-500 nM, 30 min
Experimental: For receptor phosphorylation and downstream signaling experiments, R^−/IR-A, R^−/IR-B and R^+ cells (described in 2.4) were used to explore signaling properties of ligands via specific receptors. Cells were seeded into 24-well plates (10^5 cells per well) in 300 μl of culture medium (described above) and grown overnight. Afterwards, cells were washed twice with PBS and starved in serum-free culture medium for 4 h. After the starvation, cells were washed with pure DMEM medium and incubated with ligand diluted in pure DMEM medium (0, 0.1, 1, 10, 100, 250 and 500 nM) in 37 °C for 30 min. For co-incubation of a VILP with 10 nM insulin/IGF-1, increasing concentrations of the VILP were pre-mixed with insulin or IGF-1 prior stimulation of cells. The reaction was terminated by washing the cells with ice-cold PBS (HyClone) followed by snap freezing in liquid nitrogene. […] Protein concentration in each sample was evaluated using BCA Assay (Thermo Fisher Scientific). Samples were further diluted using sample buffer for SDS-PAGE (final concentration 62.5 mM Tris, 2 % SDS (w/v), 10 % glycerol (v/v). 0.01 % bromphenol blue (w/v), 0.1 M DTT (w/v), pH 6.8 (HCl)) and routinely analyzed using SDS-PAGE and immunoblotting. […] Western blots were quantified using Image Lab 6.0.1 (Bio-Rad). […]

T3 sequence (P06213 763-1382): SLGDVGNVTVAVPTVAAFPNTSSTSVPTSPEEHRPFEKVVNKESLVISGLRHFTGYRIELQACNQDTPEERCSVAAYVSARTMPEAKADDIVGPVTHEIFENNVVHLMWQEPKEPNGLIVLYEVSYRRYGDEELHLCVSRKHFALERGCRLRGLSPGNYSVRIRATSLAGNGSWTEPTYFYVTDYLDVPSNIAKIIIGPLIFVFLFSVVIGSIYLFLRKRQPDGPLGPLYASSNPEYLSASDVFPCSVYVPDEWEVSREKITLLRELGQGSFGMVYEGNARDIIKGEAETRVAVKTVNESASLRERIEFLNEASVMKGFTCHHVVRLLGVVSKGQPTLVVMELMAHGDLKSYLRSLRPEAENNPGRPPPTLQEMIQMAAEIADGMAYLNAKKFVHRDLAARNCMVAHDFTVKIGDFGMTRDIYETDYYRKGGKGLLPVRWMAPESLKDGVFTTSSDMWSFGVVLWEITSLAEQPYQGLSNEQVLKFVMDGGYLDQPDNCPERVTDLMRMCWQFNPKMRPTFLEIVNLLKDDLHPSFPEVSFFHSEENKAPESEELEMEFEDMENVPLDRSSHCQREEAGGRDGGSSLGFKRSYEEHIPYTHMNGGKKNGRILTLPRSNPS
T3 sequence (P06213 other isoform, or with tags, fused parts or gaps): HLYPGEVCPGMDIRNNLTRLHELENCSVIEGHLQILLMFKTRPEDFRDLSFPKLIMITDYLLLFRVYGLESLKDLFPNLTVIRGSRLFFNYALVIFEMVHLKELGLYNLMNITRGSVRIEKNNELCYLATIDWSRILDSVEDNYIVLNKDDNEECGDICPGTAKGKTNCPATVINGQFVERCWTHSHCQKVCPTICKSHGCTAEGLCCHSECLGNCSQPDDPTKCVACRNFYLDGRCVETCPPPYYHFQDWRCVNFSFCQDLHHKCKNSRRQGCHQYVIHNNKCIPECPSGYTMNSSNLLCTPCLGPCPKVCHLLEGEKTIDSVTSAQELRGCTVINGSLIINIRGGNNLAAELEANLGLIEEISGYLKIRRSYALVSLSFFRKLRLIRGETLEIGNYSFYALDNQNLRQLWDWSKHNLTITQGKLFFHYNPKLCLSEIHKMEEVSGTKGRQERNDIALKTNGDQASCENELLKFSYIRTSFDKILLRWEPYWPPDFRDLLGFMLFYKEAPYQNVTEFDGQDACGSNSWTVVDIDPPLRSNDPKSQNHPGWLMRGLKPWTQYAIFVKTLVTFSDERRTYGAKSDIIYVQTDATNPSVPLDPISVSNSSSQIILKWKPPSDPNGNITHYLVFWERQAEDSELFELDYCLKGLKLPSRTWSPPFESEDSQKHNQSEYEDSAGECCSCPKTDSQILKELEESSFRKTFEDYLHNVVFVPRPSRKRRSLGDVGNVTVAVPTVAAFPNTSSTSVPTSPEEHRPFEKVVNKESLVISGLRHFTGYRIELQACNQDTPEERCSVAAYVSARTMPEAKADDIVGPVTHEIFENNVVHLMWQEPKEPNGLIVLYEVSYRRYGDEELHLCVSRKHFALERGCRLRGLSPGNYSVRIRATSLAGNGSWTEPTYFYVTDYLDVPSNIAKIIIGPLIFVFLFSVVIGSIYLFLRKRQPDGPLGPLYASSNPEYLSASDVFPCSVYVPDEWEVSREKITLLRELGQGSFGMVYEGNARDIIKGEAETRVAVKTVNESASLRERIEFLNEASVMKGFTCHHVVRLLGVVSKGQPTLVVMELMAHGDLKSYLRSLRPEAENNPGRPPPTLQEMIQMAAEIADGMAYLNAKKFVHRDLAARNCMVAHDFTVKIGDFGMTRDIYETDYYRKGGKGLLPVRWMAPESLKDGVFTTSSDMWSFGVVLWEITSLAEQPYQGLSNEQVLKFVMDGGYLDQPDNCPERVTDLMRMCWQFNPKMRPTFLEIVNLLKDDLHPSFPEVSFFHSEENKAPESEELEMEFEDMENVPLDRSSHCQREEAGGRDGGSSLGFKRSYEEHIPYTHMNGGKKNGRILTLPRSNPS
T2 sequence (P06213 28-758 limits assumed): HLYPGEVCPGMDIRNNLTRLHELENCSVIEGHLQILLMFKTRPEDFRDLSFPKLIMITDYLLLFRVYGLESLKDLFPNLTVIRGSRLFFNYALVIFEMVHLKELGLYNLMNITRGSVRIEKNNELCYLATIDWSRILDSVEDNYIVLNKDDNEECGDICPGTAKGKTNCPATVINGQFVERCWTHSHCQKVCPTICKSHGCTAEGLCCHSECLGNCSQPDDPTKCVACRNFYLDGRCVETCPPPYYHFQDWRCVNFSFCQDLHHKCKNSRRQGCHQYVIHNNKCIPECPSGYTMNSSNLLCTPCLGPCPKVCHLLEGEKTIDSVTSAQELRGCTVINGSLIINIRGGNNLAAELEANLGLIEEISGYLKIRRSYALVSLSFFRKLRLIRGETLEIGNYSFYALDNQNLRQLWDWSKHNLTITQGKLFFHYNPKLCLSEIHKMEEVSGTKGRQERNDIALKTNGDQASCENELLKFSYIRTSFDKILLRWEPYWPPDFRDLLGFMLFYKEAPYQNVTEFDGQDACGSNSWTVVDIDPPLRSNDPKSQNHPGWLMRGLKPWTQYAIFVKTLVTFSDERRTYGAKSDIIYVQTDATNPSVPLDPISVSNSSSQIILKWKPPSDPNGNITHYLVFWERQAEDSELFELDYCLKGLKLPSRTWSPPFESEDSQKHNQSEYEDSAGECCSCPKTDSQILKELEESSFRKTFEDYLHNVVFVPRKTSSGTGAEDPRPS
T2 sequence (P06213 763-1382 limits assumed): as the sequence (P06213 763-1382) above

Substance: Human IGF-1: human insulin like growth factor-1, supplied by Merck [reference compound]
- increase in cell proliferation in cells transfected with empty vector [1]: 2.2 fold
- decrease of IGF-1R gene expression [2]: neither dcMFRV-VILP nor IGF-1 demonstrated a similar effect

Substance: Human insulin: human insulin, supplied by Merck; Humulin (Eli Lilly) in the insulin tolerance test [reference compound]
- maximum decrease in blood glucose levels ([3]; 6 nmol/kg (1x) i.p., male C57BL/6 J mice, 6 h starved): ~60%

Substance: I: ILAQTLCGSELVDALELVCGEYGGIYRPPK / II: KIVDVCCTTKGCNYMDLKQYCN (disulfide I:7-II:7, I:19-II:21, II:6-II:12) [dcLCDV-Sa]
- EC50 [4]: 282 nM
- Kd [5]: 994 ± 55 nM
- Kd [6]: 639 ± 453 nM
- EC50 [7]: 198 nM
- Kd ([8]; competition with 125I-insulin, IM-9 cells, mean ± S.D. (n), n ≥ 3 binding curves each in duplicate, measurement series #, SD): 487 ± 287 nM

Substance: I: VLTDKLCGKDLVDALLLVCGEKGVYSPKMG / II: GIADVCCTSANGCDLNFLEKFCKT (disulfide I:7-II:7, I:19-II:22, II:6-II:13) [dcMFRV]
- glucose-lowering effect ([3]; 60 nmol/kg (10x) i.p., dcMFRV-VILP): comparable effect to scMFRV-VILP (1x)
- maximum response of IR-B autophosphorylation compared to 10 nM insulin [9]: comparable maximum response
- affinity on IR-A, fold stronger than IGF-1 ([8]; ratio of Kd values): 1.5 fold
- fold difference in IR-A affinity, dcMFRV-VILP higher than the sc form ([8]; ratio of Kd values): about 3 fold
- decrease of IGF-1R gene expression [2]: neither dcMFRV-VILP nor IGF-1 demonstrated a similar effect
